The values below come from patent US20200347043A1, “MODULATORS OF THE INTEGRATED STRESS PATHWAY” (Calico Life Sciences LLC, priority 2019, published 2020).

The test relates to HEK293T cells carrying the ATF4 luciferase reporter. Kind of test: ATF4-Luc assay (in vitro model of VWMD). The format is cell-based, human. The settings on record: Homo sapiens, HEK-293T, 1 μg/mL tunicamycin, 7 hours, One Glo luminescence. Put shortly: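 Stable HEK293T line expressing firefly luciferase behind the human ATF4 5′-UTR, treated with 1 μg/mL tunicamycin plus compound for 7 hours. Luminescence read with One Glo; EC50 determined.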

The EC50 is the concentration at which the effect is half-maximal. In the case of `O=C(NC12CC(n3ccc(-c4ccc(Cl)cc4)c3)(C1)C2)[C@@H]1C[C@@H](O)c2cc(Cl)ccc2O1` [Compound 241, (2S,4R)-6-chloro-N-{3-[3-(4-chlorophenyl)-1H-pyrrol-1-yl]bicyclo[1.1.1]pentan-1-yl}-4-hydroxy-3,4-dihydro-2H-1-benzopyran-2-carboxamide], the EC50 fell in the range of 50 to 250 nM.
The same measure for `O=C(N[C@@H]1C[C@@H]2O[C@H]1C[C@H]2c1nnc([C@H]2C[C@@H](OC(F)(F)F)C2)o1)[C@@H]1C[C@H](O)c2cc(Cl)ccc2O1` (racemic) [Compound 186]: 10 to 50 nM; for `O=C(NC12CC(c3csc(O[C@H]4C[C@@H](OC(F)(F)F)C4)n3)(C1)C2)[C@H]1C[C@@H](O)c2cc(Cl)ccc2O1` [Compound 300, (2R,4R)-6-chloro-4-hydroxy-N-[3-(2-{[cis-3-(trifluoromethoxy)cyclobutyl]oxy}-1,3-thiazol-4-yl)bicyclo[1.1.1]pentan-1-yl]-3,4-dihydro-2H-1-benzopyran-2-carboxamide]: 50 to 250 nM; for `O=C(CO[C@H]1C[C@@H](OC(F)(F)F)C1)NC12CCC(NC(=O)[C@@H]3C[C@H](O)c4cc(Cl)ccc4O3)(CC1)C[C@@H]2O` [Compound 276, (2S,4S)-6-chloro-4-hydroxy-N-[(3S)-3-hydroxy-4-(2-{[cis-3-(trifluoromethoxy)cyclobutyl]oxy}acetamido)bicyclo[2.2.2]octan-1-yl]-3,4-dihydro-2H-1-benzopyran-2-carboxamide]: less than 10 nM.
With `O=C(NC12CCC(c3nnc([C@H]4C[C@@H](OC(F)(F)F)C4)o3)(CC1)OC2)[C@@H]1C[C@H](O)c2cc(Cl)ccc2O1` [Compound 190, (2S,4S)-6-chloro-4-hydroxy-N-(1-{5-[cis-3-(trifluoromethoxy)cyclobutyl]-1,3,4-oxadiazol-2-yl}-2-oxabicyclo[2.2.2]octan-4-yl)-3,4-dihydro-2H-1-benzopyran-2-carboxamide], the EC50 fell in the range of 50 to 250 nM.
For the molecule `O=C(NC12CC(c3csc(-c4ccc(Cl)cc4)n3)(C1)C2)[C@@H]1C[C@@H](O)c2cc(Cl)ccc2O1` [Compound 273, (2S,4R)-6-chloro-N-{3-[2-(4-chlorophenyl)-1,3-thiazol-4-yl]bicyclo[11.11]pentan-1-yl}-4-hydroxy-3,4-dihydro-2H-1-benzopyran-2-carboxamide], the EC50 was in the range of 50 to 250 nM.
With `O=C(NC1CC2(C1)CN(C(=O)COc1ccc(Cl)c(F)c1)C2)[C@H]1C[C@@H](O)c2cc(Cl)ccc2O1` [Compound 143, (2R,4R)-6-chloro-N-{2-[(4-chloro-3-fluorophenoxy)acetyl]-2-azaspiro[3.3]heptan-6-yl}-4-hydroxy-3,4-dihydro-2H-1-benzopyran-2-carboxamide], the EC50 is 50 to 250 nM.
Turning to `O=C(NC12CC(n3cnc(-c4ccc(Cl)cc4)c3)(C1)C2)[C@H]1C[C@@H](O)c2cc(Cl)ccc2O1` [Compound 281, (2R,4R)-6-chloro-N-{3-[4-(4-chlorophenyl)-1H-imidazol-1-yl]bicyclo[1.1.1]pentan-1-yl}-4-hydroxy-3,4-dihydro-2H-1-benzopyran-2-carboxamide], the EC50 was less than 10 nM.
For the molecule `O=C1C[C@H](C(=O)NC23CCC(C(=O)NCc4ccc(C(F)(F)F)cn4)(CC2)CC3)Oc2ccc(Cl)cc21` [Compound 106, (2R)-6-chloro-4-oxo-N-[4-({[5-(trifluoromethyl)pyridin-2-yl]methyl}carbamoyl)bicyclo[2.2.2]octan-1-yl]-3,4-dihydro-2H-1-benzopyran-2-carboxamide], the EC50 lay in the range of 10 to 50 nM.
For `O=C(N[C@@H]1CC[C@@H](c2nnc([C@H]3C[C@@H](OC(F)(F)F)C3)o2)OC1)[C@@H]1C[C@H](O)c2cc(Cl)ccc2O1` (relative stereo) [Compound 170, (2S,4S)-6-chloro-4-hydroxy-N-[(3R,6S)-6-{5-[cis-3-(trifluoromethoxy)cyclobutyl]-1,3,4-oxadiazol-2-yl}oxan-3-yl]-3,4-dihydro-2H-1-benzopyran-2-carboxamide], the EC50 lay in the range of 250 to 500 nM.
The same measure for `O=C(COc1ccc(Cl)c(F)c1)N[C@H]1CC[C@H](NC(=O)C2CC(O)c3cc(Cl)ccc3O2)CC1` (some centres unmarked) [Compound 141, 6-chloro-N-{(1r,4r)-4-[2-(4-chloro-3-fluorophenoxy)acetamido]cyclohexyl}-4-hydroxy-3,4-dihydro-2H-1-benzopyran-2-carboxamide]: 10 to 50 nM; for `O=C1CC(C(=O)N[C@H]2CC[C@H](C(=O)NCc3nc4ccc(Cl)cc4[nH]3)CC2)Oc2ccc(Cl)cc21` (some centres unmarked) [Compound 138, 6-chloro-N-[(1r,4r)-4-{[(6-chloro-1H-benzimidazol-2-yl)methyl]carbamoyl}cyclohexyl]-4-oxo-3,4-dihydro-2H-1-benzopyran-2-carboxamide]: 50 to 250 nM.
To `Cc1nc(C23CC(NC(=O)[C@H]4C[C@@H](O)c5cc(Cl)ccc5O4)(C2)C3)oc1-c1ccc(Cl)cc1` [Compound 274, (2R,4R)-6-chloro-N-{3-[5-(4-chlorophenyl)-4-methyl-1,3-oxazol-2-yl]bicyclo[1.1.1]pentan-1-yl}-4-hydroxy-3,4-dihydro-2H-1-benzopyran-2-carboxamide] belongs 10 to 50 nM; to `O=C(NC12CC(c3cc(-c4ccc(Cl)c(F)c4)no3)(C1)C2)[C@@H]1C[C@@H](O)c2cc(Cl)ccc2O1` [Compound 249, (2S,4R)-6-chloro-N-{3-[3-(4-chloro-3-fluorophenyl)-1,2-oxazol-5-yl]bicyclo[11.11]pentan-1-yl}-4-hydroxy-3,4-dihydro-2H-1-benzopyran-2-carboxamide], 50 to 250 nM.
